Experimental data taken from patent US8404720B2, “Aryl sulfonamide amine compounds and their use as 5-HT6 ligands” (Suven Life Sciences Limited, priority 2008, dated 2013).
One block for each compound: values may come before it.

Tests used:
Human 5-HT6 Receptor = Human 5-HT6 Receptor (Homo sapiens, UniProt P50406); experiment: Binding Assay for Human 5-HT6 Receptor ([3H]LSD radioligand); conditions: [3H]LSD 1.5 nM, human recombinant receptor in HEK293 cells; for % Inhibition at 100 nM: 100 nM test compound; for % Inhibition at 1000 nM: 1000 nM test compound; for % Inhibition at 10 nM: 10 nM test compound
Sequence of Human 5-HT6 Receptor (P50406 whole entry, the tested form may be a part): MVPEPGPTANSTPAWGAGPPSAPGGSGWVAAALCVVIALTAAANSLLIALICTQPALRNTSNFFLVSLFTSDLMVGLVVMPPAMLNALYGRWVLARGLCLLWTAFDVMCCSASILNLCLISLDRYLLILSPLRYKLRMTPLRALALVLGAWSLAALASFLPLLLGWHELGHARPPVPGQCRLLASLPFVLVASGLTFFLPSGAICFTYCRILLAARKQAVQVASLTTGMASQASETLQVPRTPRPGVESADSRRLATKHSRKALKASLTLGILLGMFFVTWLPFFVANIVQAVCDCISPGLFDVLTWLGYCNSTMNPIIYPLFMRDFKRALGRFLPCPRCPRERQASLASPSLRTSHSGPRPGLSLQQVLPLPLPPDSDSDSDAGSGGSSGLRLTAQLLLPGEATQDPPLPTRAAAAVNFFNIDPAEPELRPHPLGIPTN

[1] = Rodent Brain Penetration Study; assay type: in vivo, Male Wister rats; conditions: Wistar/Male rat, Intravenous infusion, 1 mg/kg, brain/plasma
Experimental: Male Wister rats (230-280 grams) obtained from NIN (National Institute of Nutrition, Hyderabad, India) was used as an experimental animal. Three animals were housed in each cage. Animals were given water and food ad libitum throughout the experiment, and maintained on a 12 hours light/dark cycle.
Brain penetration was determined at steady state in rat. One day prior to dosing day, male wistar rats (225-250 grams) were anesthetized with halothane for surgical placement of jugular and femoral vein catheters. After surgery, the rats were housed in individual rat infusion cage connected with infusion components (Instech Solomon; Plymouth Meeting, Pa. USA) and allowed free access to food and water
NCE compound was dissolved in water and administered at a constant infusion rate (5 mL/kg/hr) over 6-10 hours at a target dose rate of 1.0 mg free base/kg/h. Blood samples were removed during the latter part of the infusion to confirm steady-state blood concentrations, brain and blood was collected and estimated. Animals will be sacrificed to collect the plasma and brain tissue and was homogenized. Plasma and Brain was stored frozen at −20° C. until analysis. The concentrations of the NCE compound in plasma and Brain were determined using LC-MS/MS method.
The NCE compounds were quantified in plasma and brain homogenate by validated LC-MS/MS method using solid phase extraction technique. NCE compounds were quantified in the calibration range of 1-500 ng/mL in plasma and brain homogenate. Study samples were analyzed using calibration samples in the batch and quality control samples spread across the batch. Extents of brain-blood ratio were calculated (Cb/Cp).

Male Wister rats = experiment: Object Recognition Task Model; assay type: in vivo; conditions: rat, 3 mg/kg p.o.; for Exploration time mean ± S.E.M (sec), first value column / Exploration time mean ± S.E.M (sec), second value column: choice trial T2; for Exploration time mean ± S.E.M (sec), first value column: first of two columns (sub-head not printed, presumably familiar object); for Exploration time mean ± S.E.M (sec), second value column: second of two columns (sub-head not printed, presumably novel object); for Inference: object recognition task
Experimental: The cognition-enhancing properties of compounds of this invention were estimated using a model of animal cognition: the object recognition task model.
Male Wister rats (230-280 grams) obtained from N. I. N. (National Institute of Nutrition, Hyderabad, India) was used as experimental animals. Four animals were housed in each cage. Animals were kept on 20% food deprivation before one day and given water ad libitum throughout the experiment and maintained on a 12 hours light/dark cycle. Also the rats were habituated to individual arenas for 1 hour in the absence of any objects.
One group of 12 rats received vehicle (1 mL/Kg) orally and another set of animals received compound of the formula (I) either orally or i.p., before one hour of the familiar (T1) and choice trial (T2).
The experiment was carried out in a 50×50×50 cm open field made up of acrylic. In the familiarization phase, (T1), the rats were placed individually in the open field for 3 minutes, in which two identical objects (plastic bottles, 12.5 cm height×5.5 cm diameter) covered in yellow masking tape alone (a1 and a2) were positioned in two adjacent corners, 10 cm. from the walls. After 24 hours of the (T1) trial for long-term memory test, the same rats were placed in the same arena as they were placed in T1 trial. Choice phase (T2) rats were allowed to explore the open field for 3 minutes in presence of one familiar object (a3) and one novel object (b) (Amber color glass bottle, 12 cm high and 5 cm in diameter). Familiar objects presented similar textures, colors and sizes. During the T1 and T2 trial, explorations of each object (defined as sniffing, licking, chewing or having moving vibrissae whilst directing the nose towards the object at a distance of less than 1 cm) were recorded separately by stopwatch. Sitting on an object was not regarded as exploratory activity, however, it was rarely observed.
T1 is the total time spent exploring the familiar objects (a1+a2).
T2 is the total time spent exploring the familiar object and novel object (a3+b).
The object recognition test was performed as described by Ennaceur, A., Delacour, J., A new one-trial test for neurobiological studies of memory in rats—Behavioural data, Behay. Brain Res., 1988, 31, 47-59.

rats = experiment: Water Maze (scopolamine induced reversal); assay type: in vivo; conditions: p.o.
Experimental: The water maze apparatus consisted of a circular pool (1.8 m diameter, 0.6 m high) constructed in black Perspex (TSE systems, Germany) filled with water (24±2° C.) and positioned underneath a wide-angled video camera to track animal. The 10 cm^2 perspex platform, lying 1 cm below the water surface, was placed in the centre of one of the four imaginary quadrants, which remained constant for all rats. The black Perspex used in the construction of the maze and platform offered no intramaze cues to guide escape behavior. By contrast, the training room offered several strong extramaze visual cues to aid the formation of the spatial map necessary for escape learning. An automated tracking system, [Videomot 2 (5.51), TSE systems, Germany] was employed. This program analyzes video images acquired via a digital camera and an image acquisition boards that determined path length, swim speed and the number of entries and duration of swim time spent in each quadrant of the water maze.

[2] = Rodent Pharmacokinetic Study; assay type: in vivo, Male wistar rats; conditions: Wistar/Male rat; for AUCt / T1/2 / Tmax / Cmax: 50% PEG-400 in water for injection; for Cmax: plasma; for Bioavailability: oral 10 mg/kg versus intravenous
Experimental: Male wistar rats (230-280 grams) obtained from NIN (National Institute of Nutrition, Hyderabad, India) were used as an experimental animal.
Three to five animals were housed in each cage. Animals were kept fasted over night and maintained on a 12 hours light/dark cycle. […]
At each time point blood was collected by jugular vein. Plasma was stored frozen at −20° C. until analysis. The concentrations of the NCE compound in plasma were determined using LC-MS/MS method.
Schedule time points: Pre dose. 0.25, 0.5, 1, 1.5, 2, 3, 4, 6, 8, 10, 12 and 24 hours after dosing (n=3). The NCE compounds were quantified in plasma by validated LC-MS/MS method using solid phase extraction technique. NCE compounds were quantified in the calibration range of 2-2000 ng/mL in plasma. Study samples were analyzed using calibration samples in the batch and quality control samples spread across the batch.
Pharmacokinetic parameters Cmax, Tmax, AUCt, AUCinf, half life, volume of distribution, clearance, mean residence time and thereby oral bioavailability were calculated by non-compartmental model using software WinNonlin version 5.1.

Structure (SMILES): COc1ccc(NS(=O)(=O)c2ccc(C)cc2)cc1NC1CCN(C)CC1 [Example 10, 4-Methyl-N-[4-Methoxy-3-(1-methylpiperidin-4-ylamino)phenyl] benzenesulfonamide]
% Inhibition at 100 nM (Human 5-HT6 Receptor): 88.26%
% Inhibition at 1000 nM (Human 5-HT6 Receptor): 99.2%

melting point: 119.2 to 121.3 °C
Structure (SMILES): COc1ccc(NS(=O)(=O)c2ccccc2Br)cc1N(C)C1CCN(C)CC1

Structure (SMILES): CN1CCC(Nc2cccc(NS(=O)(=O)c3ccccc3Br)c2)CC1 [Example 11, 2-Bromo-N-[3-(1-methylpiperidin-4-ylamino)phenyl] benzenesulfonamide]
% Inhibition at 10 nM (Human 5-HT6 Receptor): 8.56%
% Inhibition at 100 nM (Human 5-HT6 Receptor): 64.11%
% Inhibition at 1000 nM (Human 5-HT6 Receptor): 94.73%

Structure (SMILES): Cc1ccc(S(=O)(=O)Nc2cccc(NC3CCN(C)CC3)c2)cc1 [Example 14, 4-Methyl-N-[3-(1-methylpiperidin-4-ylamino)phenyl] benzenesulfonamide]
% Inhibition at 100 nM (Human 5-HT6 Receptor): 45.25%
% Inhibition at 1000 nM (Human 5-HT6 Receptor): 80.78%

Structure (SMILES): Cc1ccc(S(=O)(=O)Nc2ccc(Cl)c(NC3CCN(C)CC3)c2)cc1 [Example 3, 4-Methyl-N-[4-Chloro-3-(1-methylpiperidin-4-ylamino)phenyl] benzenesulfonamide]
% Inhibition at 100 nM (Human 5-HT6 Receptor): 78.66%
% Inhibition at 1000 nM (Human 5-HT6 Receptor): 98.42%

Structure (SMILES): Cc1ccc(S(=O)(=O)Nc2ccc(C)c(NC3CCN(C)CC3)c2)cc1 [Example 18, 4-Methyl-N-[4-Methyl-3-(1-Methylpiperidin-4-ylamino)phenyl] benzenesulfonamide]
% Inhibition at 100 nM (Human 5-HT6 Receptor): 63.42%
% Inhibition at 1000 nM (Human 5-HT6 Receptor): 92.37%

Structure (SMILES): Cc1ccc(NS(=O)(=O)c2ccc(F)cc2)cc1NC1CCN(C)CC1 [Example 17, 4-Fluoro-N-[4-Methyl-3-(1-Methylpiperidin-4-ylamino)phenyl] benzenesulfonamide]
% Inhibition at 100 nM (Human 5-HT6 Receptor): 64.27%
% Inhibition at 1000 nM (Human 5-HT6 Receptor): 93.00%

Structure (SMILES): COc1ccc(NS(=O)(=O)c2ccc(F)cc2)cc1NC1CCN(C)CC1 [Example 6, 4-Fluoro-N-[4-Methoxy-3-(1-methylpiperidin-4-ylamino)phenyl] benzenesulfonamide]
Steady State Brain Penetration (Cb/Cp) [1]: 0.05 ± 0.01
Exploration time mean ± S.E.M (sec), first value column (Male Wister rats): 10.02 ± 1.54 s
Exploration time mean ± S.E.M (sec), second value column (Male Wister rats): 15.27 ± 1.32 s
Inference (Male Wister rats): Active
% Inhibition at 10 nM (Human 5-HT6 Receptor): 20.71%
% Inhibition at 100 nM (Human 5-HT6 Receptor): 90.83%
% Inhibition at 1000 nM (Human 5-HT6 Receptor): 99.64%
Scopolamine Induced Reversal (rats): ≦3 mg/kg, p.o.
AUCt ([2]; Intravenous, 10 mg/kg): 4314 ± 967 ng·h/mL
T1/2 ([2]; Intravenous, 10 mg/kg): 2.18 ± 1.29 h
Tmax ([2]; Intravenous, 10 mg/kg): 0.14 ± 0.10 h
Cmax ([2]; Intravenous, 10 mg/kg): 2885 ± 401 ng/mL
AUCt ([2]; Oral, 10 mg/kg): 1421 ± 106 ng·h/mL
T1/2 ([2]; Oral, 10 mg/kg): 5.35 ± 3.65 h
Tmax ([2]; Oral, 10 mg/kg): 2.17 ± 1.44 h
Cmax ([2]; Oral, 10 mg/kg): 372 ± 85 ng/mL
Bioavailability [2]: 34%

Structure (SMILES): CN1CCC(Nc2cc(NS(=O)(=O)c3ccc(F)cc3)ccc2Cl)CC1 [Example 2, 4-Fluoro-N-[4-Chloro-3-(1-methylpiperidin-4-ylamino)phenyl] benzenesulfonamide]
% Inhibition at 100 nM (Human 5-HT6 Receptor): 69.45%
% Inhibition at 1000 nM (Human 5-HT6 Receptor): 96.73%

Structure (SMILES): COc1ccc(NS(=O)(=O)c2ccccc2Br)cc1NC1CCN(C)CC1 [Example 8, 2-Bromo-N-[4-Methoxy-3-(1-methylpiperidin-4-ylamino)phenyl] benzenesulfonamide]
Steady State Brain Penetration (Cb/Cp) [1]: 0.04 ± 0.01
Exploration time mean ± S.E.M (sec), first value column (Male Wister rats): 6.72 ± 1.95 s
Exploration time mean ± S.E.M (sec), second value column (Male Wister rats): 9.58 ± 2.26 s
Inference (Male Wister rats): Active
% Inhibition at 10 nM (Human 5-HT6 Receptor): 71.95%
% Inhibition at 100 nM (Human 5-HT6 Receptor): 99.38%
% Inhibition at 1000 nM (Human 5-HT6 Receptor): 100.63%
Scopolamine Induced Reversal (rats): ≦3 mg/kg, p.o.
AUCt ([2]; Intravenous, 10 mg/kg): 9919 ± 701 ng·h/mL
T1/2 ([2]; Intravenous, 10 mg/kg): 2.18 ± 0.54 h
Tmax ([2]; Intravenous, 10 mg/kg): 0.08 ± 0.0 h
Cmax ([2]; Intravenous, 10 mg/kg): 2645 ± 154 ng/mL
AUCt ([2]; Oral, 10 mg/kg): 6222 ± 1025 ng·h/mL
T1/2 ([2]; Oral, 10 mg/kg): 5.40 ± 2.56 h
Tmax ([2]; Oral, 10 mg/kg): 1.67 ± 1.15 h
Cmax ([2]; Oral, 10 mg/kg): 964 ± 110 ng/mL
Bioavailability [2]: 63%

Structure (SMILES): CN1CCC(Nc2cc(NS(=O)(=O)c3ccccc3Br)ccc2Cl)CC1 [Example 5, 2-Bromo-N-[4-Chloro-3-(1-methylpiperidin-4-ylamino)phenyl] benzenesulfonamide]
% Inhibition at 100 nM (Human 5-HT6 Receptor): 93.8%
% Inhibition at 1000 nM (Human 5-HT6 Receptor): 101.6%

Structure (SMILES): Cc1ccc(NS(=O)(=O)c2ccccc2Br)cc1NC1CCN(C)CC1 [Example 15, 2-Bromo-N-[4-Methyl-3-(1-methylpiperidin-4-ylamino)phenyl] benzenesulfonamide]
Steady State Brain Penetration (Cb/Cp) [1]: 0.35 ± 0.08
Exploration time mean ± S.E.M (sec), first value column (Male Wister rats): 6.89 ± 1.54 s
Exploration time mean ± S.E.M (sec), second value column (Male Wister rats): 13.26 ± 2.80 s
Inference (Male Wister rats): Active
% Inhibition at 100 nM (Human 5-HT6 Receptor): 99.44%
% Inhibition at 1000 nM (Human 5-HT6 Receptor): 104.28%
Scopolamine Induced Reversal (rats): ≦3 mg/kg, p.o.
AUCt ([2]; Intravenous, 5 mg/kg): 1231 ± 52 ng·h/mL
T1/2 ([2]; Intravenous, 5 mg/kg): 3.08 ± 2.11 h
Tmax ([2]; Intravenous, 5 mg/kg): 0.08 ± 0.0 h
Cmax ([2]; Intravenous, 5 mg/kg): 727 ± 18 ng/mL
AUCt ([2]; Oral, 10 mg/kg): 2462 ± 901 ng·h/mL
T1/2 ([2]; Oral, 10 mg/kg): 3.15 ± 2.99 h
Tmax ([2]; Oral, 10 mg/kg): 2.33 ± 1.15 h
Cmax ([2]; Oral, 10 mg/kg): 503 ± 263 ng/mL
Bioavailability [2]: 99%

Structure (SMILES): CN1CCC(Nc2cccc(NS(=O)(=O)c3ccc(F)cc3)c2)CC1 [Example 13, 4-Fluoro-N-[3-(1-methylpiperidin-4-ylamino)phenyl] benzenesulfonamide]
% Inhibition at 100 nM (Human 5-HT6 Receptor): 34.95%
% Inhibition at 1000 nM (Human 5-HT6 Receptor): 71.2%
